Test results published in ChEMBL document CHEMBL1201862, “PubChem BioAssay data set” (2004).
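Each compound was tested at five concentrations against cells in 96-well plates for 48 hours. Here, GI50 denotes the concentration required for 50% inhibition of growth.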 The source made the active and inactive calls. Rule as the data show it: active = GI50 up to about 1.1 µM and inactive = higher.

Tests used:
Assay in all cases: NCI-60 cell line screen, 48 h
SN12C = test system: SN12C
ACHN = test system: ACHN
RPMI-8226 = test system: RPMI-8226
786-0 = test system: 786-0
TK-10 = test system: TK-10
HOP-62 = test system: HOP-62
NCI-H522 = test system: NCI-H522
HCC 2998 = test system: HCC 2998
LOX IMVI = test system: LOX IMVI
K562 = test system: K562
CCRF-CEM = test system: CCRF-CEM
OVCAR-8 = test system: OVCAR-8
KM12 = test system: KM12
SK-MEL-2 = test system: SK-MEL-2
OVCAR-5 = test system: OVCAR-5
CAKI-1 = test system: CAKI-1
HOP-92 = test system: HOP-92

Measured: GI50

COC(=O)/C(=N\NC(N)=O)C(C#N)c1ccccc1 (stereo unspecified)
inactive: SN12C > 100 µM | ACHN > 100 µM | RPMI-8226 > 100 µM | 786-0 > 100 µM | TK-10 > 100 µM | HOP-62 > 100 µM | NCI-H522 > 100 µM | HCC 2998 > 100 µM | LOX IMVI > 100 µM | K562 > 100 µM | CCRF-CEM > 100 µM | OVCAR-8 > 100 µM | KM12 > 100 µM | SK-MEL-2 > 100 µM | OVCAR-5 > 100 µM

Cc1c2ccccc2cc2ccc3oc([N+](=O)[O-])cc3c12
inactive: SN12C > 100 µM | ACHN 4.73 µM | RPMI-8226 > 100 µM | 786-0 > 100 µM | TK-10 > 100 µM | HOP-62 > 100 µM | HCC 2998 > 100 µM | CAKI-1 > 100 µM | LOX IMVI > 100 µM | K562 > 100 µM | CCRF-CEM > 100 µM | OVCAR-8 > 100 µM | HOP-92 > 100 µM | KM12 > 100 µM | SK-MEL-2 5.47 µM | OVCAR-5 > 100 µM

CC(C)=CCC/C(C)=C/Cc1c(O)c(C)cc2c1[nH]c1cc(O)ccc12
inactive: SN12C > 25 µM | ACHN > 25 µM | RPMI-8226 > 25 µM | 786-0 > 25 µM | TK-10 > 25 µM | HOP-62 > 25 µM | NCI-H522 > 25 µM | HCC 2998 > 25 µM | LOX IMVI > 25 µM | K562 > 25 µM | CCRF-CEM > 25 µM | OVCAR-8 > 25 µM | HOP-92 > 25 µM | KM12 > 25 µM | SK-MEL-2 > 25 µM | OVCAR-5 > 25 µM

N#Cc1nc(C2=C(Cl)c3ccccc3OC2)[nH]c1C#N
inactive: SN12C 27.5 µM | ACHN 32.5 µM | RPMI-8226 24.4 µM | 786-0 32.1 µM | TK-10 33.6 µM | HCC 2998 16.3 µM | CAKI-1 58.6 µM | LOX IMVI 16.9 µM | K562 22.2 µM | CCRF-CEM 11.5 µM | OVCAR-8 30.4 µM | HOP-92 14.9 µM | KM12 26.1 µM | OVCAR-5 38.5 µM

N#CC(C(=O)C(=O)Nc1ccc(Cl)cc1)c1ccccc1 (stereo unspecified)
inactive: SN12C > 100 µM | ACHN > 100 µM | RPMI-8226 > 100 µM | 786-0 > 100 µM | TK-10 > 100 µM | HOP-62 85.1 µM | HCC 2998 > 100 µM | CAKI-1 > 100 µM | LOX IMVI > 100 µM | K562 > 100 µM | CCRF-CEM > 100 µM | HOP-92 > 100 µM | KM12 > 100 µM | SK-MEL-2 > 100 µM | OVCAR-5 > 100 µM

COc1ccc(/C=C2\N=C(c3ccccc3)OC2=O)c(OCc2ccccc2)c1
inactive: SN12C > 100 µM | ACHN > 100 µM | RPMI-8226 15.8 µM | 786-0 20.1 µM | HOP-62 20.5 µM | NCI-H522 24.6 µM | HCC 2998 > 100 µM | CAKI-1 85.1 µM | LOX IMVI 39.3 µM | K562 32.1 µM | CCRF-CEM 14.3 µM | OVCAR-8 22.9 µM | KM12 33 µM | OVCAR-5 > 100 µM

O/N=C1\CCCCC1C(NO)c1ccccc1 (stereo unspecified)
inactive: SN12C > 100 µM | ACHN > 100 µM | RPMI-8226 > 100 µM | 786-0 > 100 µM | TK-10 > 100 µM | HOP-62 > 100 µM | NCI-H522 81.5 µM | HCC 2998 > 100 µM | LOX IMVI > 100 µM | K562 > 100 µM | CCRF-CEM > 100 µM | OVCAR-8 > 100 µM | HOP-92 42.7 µM | KM12 > 100 µM | SK-MEL-2 > 100 µM | OVCAR-5 > 100 µM

O=C(Cc1nc2ccccc2o1)C(=O)Nc1cccc(Cl)c1
inactive: SN12C > 100 µM | ACHN > 100 µM | 786-0 > 100 µM | TK-10 > 100 µM | HOP-62 > 100 µM | NCI-H522 > 100 µM | HCC 2998 > 100 µM | CAKI-1 > 100 µM | K562 > 100 µM | CCRF-CEM > 100 µM | OVCAR-8 > 100 µM | HOP-92 > 100 µM | KM12 > 100 µM | SK-MEL-2 > 100 µM

Cc1nc(=O)n2c(C)n[nH]c2c1C(=O)O
inactive: SN12C > 100 µM | ACHN > 100 µM | RPMI-8226 > 100 µM | 786-0 > 100 µM | TK-10 > 100 µM | HOP-62 > 100 µM | NCI-H522 > 100 µM | CAKI-1 > 100 µM | LOX IMVI > 100 µM | K562 > 100 µM | CCRF-CEM > 100 µM | OVCAR-8 > 100 µM | HOP-92 > 100 µM | KM12 > 100 µM | SK-MEL-2 > 100 µM | OVCAR-5 > 100 µM

c1ccc(CSc2nc3ccccc3nc2-c2cccs2)cc1
inactive: SN12C > 100 µM | ACHN > 100 µM | RPMI-8226 > 100 µM | 786-0 > 100 µM | TK-10 > 100 µM | HOP-62 > 100 µM | NCI-H522 41.3 µM | HCC 2998 > 100 µM | K562 > 100 µM | CCRF-CEM 92.9 µM | OVCAR-8 > 100 µM | HOP-92 > 100 µM | KM12 > 100 µM | SK-MEL-2 > 100 µM | OVCAR-5 > 100 µM

Cc1ccccc1NC(=O)c1cc(-c2ccc([N+](=O)[O-])cc2)nc(S)n1
inactive: SN12C > 100 µM | ACHN > 100 µM | 786-0 > 100 µM | TK-10 > 100 µM | HOP-62 > 100 µM | HCC 2998 > 100 µM | CAKI-1 > 100 µM | LOX IMVI > 100 µM | K562 > 100 µM | CCRF-CEM > 10 µM | OVCAR-8 > 100 µM | HOP-92 > 100 µM | KM12 > 100 µM | SK-MEL-2 > 100 µM | OVCAR-5 > 100 µM

O=C(/C=C/c1ccc(O)c(O)c1)OC1C[C@@](O)(C(=O)O)C[C@@H](O)[C@H]1OC(=O)/C=C/c1ccc(O)c(O)c1 (stereo partly specified)
inactive: ACHN > 100 µM | RPMI-8226 > 100 µM | 786-0 > 100 µM | TK-10 > 100 µM | HOP-62 > 100 µM | NCI-H522 > 100 µM | HCC 2998 > 100 µM | LOX IMVI > 100 µM | K562 > 100 µM | CCRF-CEM > 100 µM | OVCAR-8 > 100 µM | HOP-92 > 100 µM | KM12 > 100 µM | SK-MEL-2 > 100 µM | OVCAR-5 > 100 µM

COC(=O)C1=Cc2cc3c(cc2[C@H](c2ccc4c(c2)OCO4)C1C(=O)OC)OCO3 (stereo partly specified)
inactive: SN12C > 100 µM | ACHN 43.9 µM | RPMI-8226 > 100 µM | 786-0 > 100 µM | TK-10 > 100 µM | HOP-62 > 100 µM | HCC 2998 > 100 µM | CAKI-1 74.1 µM | LOX IMVI > 100 µM | K562 53.5 µM | CCRF-CEM > 100 µM | OVCAR-8 > 100 µM | HOP-92 27.4 µM | KM12 67.1 µM | OVCAR-5 > 100 µM
